Measured values as given in article PMC9101373, “Design of DNA Intercalators Based on 4-Carboranyl-1,8-Naphthalimides: Investigation of Their DNA-Binding Ability and Anticancer Activity” (International Journal of Molecular Sciences, 2022).
“And” between values parts separate entries of the source, which are not always exact repeats. Equal entries are not always repeated.

What was measured:
[1] = tested on: calf thymus DNA (ct-DNA); experiment: Melting temperature (Tm) measurements of ct-DNA, thermal denaturation; assay type: binding; details: r = [compound]/[ct-DNA] = 0.3; pH 7.0, 20 mM cacodylate buffer; Tm of ct-DNA alone 74 °C
Procedure: The melting temperature (Tm) of DNA is defined as the temperature at which 50% of the DNA is in form of single strands forming randomly coiled structures. DNA melting is measured by the absorbance of UV light (260 nm) by the DNA solution, where the amount of UV light absorbed is proportional to the fraction of non-bonded base pairs. The majority of DNA-binding small molecules known thus far stabilize duplex DNA against heat denaturation. A high, drug-induced increase in the Tm of DNA is generally viewed as an excellent criterion to select DNA ligands and is a common feature of several anticancer drugs such as intercalators (a significant increase in Tm = 3–8 °C is observed for strong intercalation) and alkylators. The reverse situation (destabilization of DNA to facilitate its denaturation) may be an attractive option to identify therapeutic agents acting on the DNA structure.
Our study conducted Tm measurement to estimate the impact of 1,8-naphthalimides bearing the carborane cluster on DNA stabilization (Table 1, Figures S249–S253, ESI).
The measurements were performed by adding aliquots of DMSO stock solution of the tested compounds to the buffer solution (pH 7.0, 20 mM, cacodylate buffer, DMSO content of the final solution = 0.24–0.36%). The Tm curves were collected at r = 0.3 (r = [compound]/[ct-DNA]) to assure the dominant binding mode. Thermal melting curves were determined by following the absorption change at 260 nm as a function of temperature by using a GBC Cintra10 UV–vis spectrometer (Dandenong, Australia) equipped with a GBC Thermocell Peltier Power Supply (Dandenong, Australia) using a 1 cm path length cell. The absorbance of the samples was monitored at 260 nm from 30 to 90 °C (95 °C for compounds 54–61) with a heating rate of 1 °C/min. Tm values are the midpoints or the transition curves determined from the maximum of the first derivative. The ΔTm values were calculated by subtracting the Tm of the free nucleic acid from the Tm of the sample. Every Tm value reported in this study was average at least three measurements. The error in Tm was 0.5 °C.

[2] = tested on: HepG2 cells; experiment: Analysis of 8-oxo-dG in cellular DNA by HPLC-UV-ED; assay type: cell-based, human; details: HepG2, 24 h; for [8-oxo-dG ± SD] × 10^6, 8-oxo-dG level in cellular DNA: concentration corresponding to total IC50, control 2.88 ± 0.17
Procedure: We also estimated 8-oxo-dG levels in DNA since 2-deoxyguanosine is most susceptible to oxidation among nucleosides and might serve as an oxidative DNA damage marker within the cells. […] Both compounds generate much higher oxidative disturbance in DNA than mitonafide, resulting in approximately 4- and 6-fold more 8-oxo-dG residues, respectively.
HepG2 cells (1 × 10^6) were seeded onto flasks (25 cm^2) and cultured for 16 h in the EMEM medium (Corning®) supplemented with 10% FBS (Corning®) and antibiotics (Sigma).Subsequently, the cells were treated for 24 h with the tested compounds at a concentration corresponding to their total IC50 values. Next, the cells were trypsinized, rinsed twice with PBS, and pelleted by centrifugation (200× g, 3 min). Total DNA was isolated from the treated cells and untreated control cells using a Genomic mini DNA isolation kit (A&A Biotechnology, Gdynia, Poland) according to the manufacturer′s protocol. The quality of the total DNA was assessed spectrophotometrically.
DNA (1 μg) was dissolved in sodium acetate buffer (10 μL, 40 mM, pH 5.3) containing ZnCl2 (0.1 mM) and digested with nuclease P1 (3 μg). Samples were incubated for 3 h at 37 °C. Subsequently, Tris–HCl (2 μL, 1 M, pH 8.0), alkaline phosphatase (1 U) were added and incubated for 2 h at 37 °C. All DNA hydrolysates were ultrafiltered using cut-off 10,000 Da filter units.
8-Oxo-dG and dG in hydrolysates were determined using HPLC-UV followed by electrochemical detection and ED (Coulochem III Electrochemical Detector, ESA, Inc., Chelmsford, MA, USA). DNA hydrolysates were chromatographed isocratically using ammonium acetate (50 mM pH 5.3)/methanol (93:7, v/v). Detection of dG was performed at 254 nm. Detection of 8-oxo-dG was performed by the electrochemical detector: guard cell + 400 mV, detector 1: +130 mV (as a screening electrode), detector 2: + 350 mV (as a measuring electrode set to sensitivity of 500 nA/V). All results are expressed as the mean ± SD.
To determine 8-oxo-dG levels, guanosine amount was necessary. The total number of 8-oxo-dG residues in the genome was calculated using the unique formula [54].

N-[2-N-Pyrrolidinyl)ethyl]-4-[(6-(2-(1,7-dicarba-closo-dodecaborane-1-yl)-ethylamino)hexyl)amino]-1,8-naphthalimide [Compound 61]
ΔTm ct-DNA [1]: 12.33 °C
fold increase in number of 8-oxo-dG residues per 10^6 dG as compared to control [2]: > 43 fold
fold more 8-oxo-dG residues than mitonafide [2]: 4 fold and ~6 fold
[8-oxo-dG ± SD] × 10^6, 8-oxo-dG level in cellular DNA [2]: 123.92 ± 2.59 per 10^6 dG

N-[2-N-Pyrrolidinyl)ethyl]-4-[(6-(2-(1,2-dicarba-closo-dodecaborane-1-yl)-ethylamino)hexyl)amino]-1,8-naphthalimide [Compound 60]
ΔTm ct-DNA [1]: 7.67 °C
fold increase in number of 8-oxo-dG residues per 10^6 dG as compared to control [2]: over 57 fold
fold more 8-oxo-dG residues than mitonafide [2]: approximately 4 fold
[8-oxo-dG ± SD] × 10^6, 8-oxo-dG level in cellular DNA [2]: 164.35 ± 6.39 per 10^6 dG

N-[2-(Pyrrolidin-1-yl)ethyl]-4-[(2-(2-(1,2-dicarba-closo-dodecaborane-1-yl)-ethylamino)ethyl)amino]-1,8-naphthalimide [Compound 56]
ΔTm ct-DNA [1]: 7.67 °C
[8-oxo-dG ± SD] × 10^6, 8-oxo-dG level in cellular DNA [2]: 52.31 ± 0.51 per 10^6 dG

N-[2-(Dimethylamino)ethyl]-4-[(6-(2-(1,7-dicarba-closo-dodecaborane-1-yl)-ethylamino)hexyl)amino]-1,8-naphthalimide [Compound 59]
ΔTm ct-DNA [1]: 8.33 °C
[8-oxo-dG ± SD] × 10^6, 8-oxo-dG level in cellular DNA [2]: 81.64 ± 0.67 per 10^6 dG

N-[2-(Dimethylamino)ethyl]-4-[(6-(2-(1,2-dicarba-closo-dodecaborane-1-yl)-ethylamino)hexyl)amino]-1,8-naphthalimide [Compound 58]
ΔTm ct-DNA [1]: 11.00 °C
[8-oxo-dG ± SD] × 10^6, 8-oxo-dG level in cellular DNA [2]: 96.58 ± 0.56 per 10^6 dG

N-[2-(Dimethylamino)ethyl]-4-[(2-(2-(1,2-dicarba-closo-dodecaborane-1-yl)-ethylamino)ethyl)amino]-1,8-naphthalimide [Compound 54]
ΔTm ct-DNA [1]: 7.67 °C
[8-oxo-dG ± SD] × 10^6, 8-oxo-dG level in cellular DNA [2]: 43.17 ± 0.75 per 10^6 dG

N-[2-(Pyrrolidin-1-yl)ethyl]-4-[(2-(2-(1,7-dicarba-closo-dodecaborane-1-yl)-ethylamino)ethyl)amino]-1,8-naphthalimide [Compound 57]
ΔTm ct-DNA [1]: 11.00 °C
[8-oxo-dG ± SD] × 10^6, 8-oxo-dG level in cellular DNA [2]: 57.54 ± 0.73 per 10^6 dG

N-[2-(Dimethylamino)ethyl]-4-[(2-(2-(1,7-dicarba-closo-dodecaborane-1-yl)-ethylamino)ethyl)amino]-1,8-naphthalimide [Compound 55]
ΔTm ct-DNA [1]: 9.67 °C
[8-oxo-dG ± SD] × 10^6, 8-oxo-dG level in cellular DNA [2]: 74.85 ± 1.38 per 10^6 dG
